Reference: PMC12669672, “Structural insights into selective and dual antagonism of EP2 and EP4 prostaglandin receptors” (The EMBO Journal, 2025)
Several values for one entry are separate records, joined by “and”; a condition that tells them apart may be missing. Equal values may be shown once. Entries after “also recorded” stand apart in the source; their conditions may differ. Read-outs that look alike come from different tables or passages of the source.

What was measured:
Assay in all cases: GloSensor cAMP assay, antagonism of PGE2-induced cAMP
Type in all cases: cell-based
[1] = target: EP2 WT (Homo sapiens, UniProt P43116); design: The full-length EP2 or EP4 was cloned into the pcDNA3.1 vector; FLAG (N); expressed in transfected cells; host or cells: AD293 cells
Description: (§1) The full-length EP2 or EP4 was cloned into the pcDNA3.1 vector (Invitrogen), incorporating an N-terminal FLAG tag. AD293 cells were seeded in six-well plates containing DMEM supplemented with 10% dialyzed FBS 1 day prior to transfection. Following overnight growth, cells were transfected with a 1:1 ratio of receptor construct and GloSensor22F cAMP biosensor (Promega) plasmids.
(§2) Twenty-four hours post-transfection, the cells were transferred to CO2-independent media containing 2% GloSensor cAMP Reagent (Promega) and distributed into 384-well assay plates at a density of 4000 cells per well in 10 μL. […] The plates were then incubated at 37 °C for an additional hour before luminescence measurements were taken using an EnVision plate reader.
(§3) Data analysis was performed using GraphPad Prism software v8.0.1. A nonlinear regression analysis, employing a sigmoidal dose–response model, was conducted to determine the Emax values and half-maximum inhibitory concentrations (IC50) for each compound tested.

[2] = target: T1, EP4 S319A (Homo sapiens, UniProt P35408, S319A); conditions: for cAMP activity (∆pIC50 from EP4 WT): TG6-129, S319A
T1 construct: The full-length EP2 or EP4 was cloned into the pcDNA3.1 vector (Invitrogen), incorporating an N-terminal FLAG tag; expressed in transfected cells; host or cells: AD293
Description: as §1, §2, §3

[3] = target: T2, EP2 T82A (Homo sapiens, UniProt P43116, T82A); conditions: for cAMP activity (∆pIC50 from EP2 WT): TG6-129, T82A
T2 construct: The full-length EP2 or EP4 was cloned into the pcDNA3.1 vector; FLAG (N); expressed in transfected cells; host or cells: AD293 cells
Description: as §1, §2, §3

[4] = target: T3, EP4 V72A (Homo sapiens, UniProt P35408, V72A)
T3 construct: The full-length EP2 or EP4 was cloned into the pcDNA3.1 vector; FLAG (N); expressed in transfected cells; host or cells: AD293 cells
Description: as §1, §2, §3

[5] = target: T4, EP2 M116A (Homo sapiens, UniProt P43116, M116A); conditions: for cAMP activity (∆pIC50 from EP2 WT): TG6-129, M116A
T4 construct: The full-length EP2 or EP4 was cloned into the pcDNA3.1 vector; FLAG (N); expressed in transfected cells; host or cells: AD293 cells
Description: as §1, §2, §3

[6] = target: T5, EP2 S308A (Homo sapiens, UniProt P43116, S308A)
T5 construct: The full-length EP2 or EP4 was cloned into the pcDNA3.1 vector; FLAG (N); expressed in transfected cells; host or cells: AD293 cells
Description: as §1, §2, §3

[7] = 1 h, TG6-129 log([M]) -8, read-out: % cAMP activity (normalized to WT)
[8] = 1 h, TG6-129 log([M]) -9, read-out: % cAMP activity (normalized to WT)
[9] = 1 h, TG6-129 log([M]) -11, read-out: % cAMP activity (normalized to WT)
[10] = 1 h, TG6-129 log([M]) -12, read-out: % cAMP activity (normalized to WT)
[11] = 1 h, TG6-129 log([M]) -4.00, read-out: % cAMP activity (normalized to WT)
[12] = 1 h, TG6-129 log([M]) -4.70, read-out: % cAMP activity (normalized to WT)
[13] = 1 h, TG6-129 log([M]) -5.40, read-out: % cAMP activity (normalized to WT)
[14] = 1 h, TG6-129 log([M]) -6.10, read-out: % cAMP activity (normalized to WT)
[15] = 1 h, TG6-129 log([M]) -6.80, read-out: % cAMP activity (normalized to WT)
[16] = 1 h, TG6-129 log([M]) -7.49, read-out: % cAMP activity (normalized to WT)
[17] = 1 h, TG6-129 log([M]) -8.19, read-out: % cAMP activity (normalized to WT)
[18] = 1 h, TG6-129 log([M]) -8.89, read-out: % cAMP activity (normalized to WT)

T3 sequence (P35408 whole entry V72A): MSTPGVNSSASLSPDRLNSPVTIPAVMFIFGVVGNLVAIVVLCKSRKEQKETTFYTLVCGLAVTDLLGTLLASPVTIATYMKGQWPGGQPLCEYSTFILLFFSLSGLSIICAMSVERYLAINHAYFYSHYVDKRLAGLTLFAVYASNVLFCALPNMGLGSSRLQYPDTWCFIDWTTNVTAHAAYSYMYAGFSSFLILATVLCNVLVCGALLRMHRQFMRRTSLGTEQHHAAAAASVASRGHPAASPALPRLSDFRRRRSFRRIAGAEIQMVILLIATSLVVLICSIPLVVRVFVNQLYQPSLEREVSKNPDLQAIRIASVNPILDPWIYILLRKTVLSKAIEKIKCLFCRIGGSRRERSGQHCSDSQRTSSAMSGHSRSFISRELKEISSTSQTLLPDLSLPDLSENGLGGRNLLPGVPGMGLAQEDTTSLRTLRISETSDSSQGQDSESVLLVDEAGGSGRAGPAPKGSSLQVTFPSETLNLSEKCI
T1 sequence (P35408 whole entry S319A): as the sequence (P35408 whole entry V72A) above, with A72V, S319A counted along it
T2 sequence (P43116 whole entry T82A): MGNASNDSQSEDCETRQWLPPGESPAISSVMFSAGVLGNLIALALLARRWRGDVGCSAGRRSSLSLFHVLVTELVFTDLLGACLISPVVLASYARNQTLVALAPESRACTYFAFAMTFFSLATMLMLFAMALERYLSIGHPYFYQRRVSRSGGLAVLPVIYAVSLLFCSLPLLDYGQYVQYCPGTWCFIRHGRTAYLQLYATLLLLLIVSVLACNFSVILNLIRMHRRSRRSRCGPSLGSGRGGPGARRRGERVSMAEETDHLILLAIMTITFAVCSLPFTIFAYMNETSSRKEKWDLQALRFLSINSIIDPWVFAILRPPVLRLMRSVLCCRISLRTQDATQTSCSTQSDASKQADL
T4 sequence (P43116 whole entry M116A): as the sequence (P43116 whole entry T82A) above, with A82T, M116A counted along it
EP2 WT, sequence (P43116 whole entry): as the sequence (P43116 whole entry T82A) above, with A82T counted along it
T5 sequence (P43116 whole entry S308A): as the sequence (P43116 whole entry T82A) above, with A82T, S308A counted along it

- IC50 [1]: 0.0813 µM
- remaining activity at 0.1 µM ([1]; 1 h, TG6-129 log([M]) -7, read-out: % cAMP activity (normalized to WT)): 40.1%
- remaining activity at 0.01 µM [1, 7]: 94.7%
- remaining activity at 0.001 µM [1, 8]: 104%
- remaining activity at 0.0001 µM ([1]; 1 h, TG6-129 log([M]) -10, read-out: % cAMP activity (normalized to WT)): 94.6%
- remaining activity at 10 pM [1, 9]: 102%
- remaining activity at 1 pM [1, 10]: 94.1%
- remaining activity at 1 µM ([1]; 1 h, ligand log([M]) -6, single experiments 1st-3rd, Fig. S7B, read-out: % cAMP activity (normalized to WT)): 3.11%
- remaining activity at 0.1 µM ([1]; 1 h, ligand log([M]) -7, single experiments 1st-3rd, Fig. S7B, read-out: % cAMP activity (normalized to WT)): 42.8%
- remaining activity at 0.01 µM ([1]; 1 h, ligand log([M]) -8, single experiments 1st-3rd, Fig. S7B, read-out: % cAMP activity (normalized to WT)): 80.3%
- remaining activity at 0.001 µM ([1]; 1 h, ligand log([M]) -9, single experiments 1st-3rd, Fig. S7B, read-out: % cAMP activity (normalized to WT)): 95.4%
- remaining activity at 0.0001 µM ([1]; 1 h, ligand log([M]) -10, single experiments 1st-3rd, Fig. S7B, read-out: % cAMP activity (normalized to WT)): 93.9%
- remaining activity at 10 pM ([1]; 1 h, ligand log([M]) -11, single experiments 1st-3rd, Fig. S7B, read-out: % cAMP activity (normalized to WT)): 103%
- remaining activity at 1 pM ([1]; 1 h, ligand log([M]) -12, single experiments 1st-3rd, Fig. S7B, read-out: % cAMP activity (normalized to WT)): 110%
- remaining activity at 0.1 µM ([1]; 1 h, read-out: % cAMP activity on EP2 (normalized to PF-04418948), ligand log([M]) -7, single experiments 1st-3rd, Fig. S1A): 46%
- remaining activity at 0.01 µM ([1]; 1 h, read-out: % cAMP activity on EP2 (normalized to PF-04418948), ligand log([M]) -8, single experiments 1st-3rd, Fig. S1A): 84.5%
- remaining activity at 0.001 µM ([1]; 1 h, read-out: % cAMP activity on EP2 (normalized to PF-04418948), ligand log([M]) -9, single experiments 1st-3rd, Fig. S1A): 100%
- remaining activity at 0.0001 µM ([1]; 1 h, read-out: % cAMP activity on EP2 (normalized to PF-04418948), ligand log([M]) -10, single experiments 1st-3rd, Fig. S1A): 98.6%
- remaining activity at 10 pM ([1]; 1 h, read-out: % cAMP activity on EP2 (normalized to PF-04418948), ligand log([M]) -11, single experiments 1st-3rd, Fig. S1A): 108%
- remaining activity at 1 pM ([1]; 1 h, read-out: % cAMP activity on EP2 (normalized to PF-04418948), ligand log([M]) -12, single experiments 1st-3rd, Fig. S1A): 115%
- cAMP activity (∆pIC50 from EP2 WT) ([1]; TG6-129, WT, single experiments 1st-3rd): 0.065 and 0.064 and -0.014
- cAMP activity (∆pIC50 from EP2 WT) ([1]; single experiments 1st-3rd, Appendix Fig. S7A): 0.111 and -0.076 and -0.052
- IC50 [2]: 20 µM
- remaining activity at 100 µM [2, 11]: 15.3%
- remaining activity at […] [2, 12]: 26.4%
- remaining activity at […] [2, 13]: 52.2%
- remaining activity at […] [2, 14]: 50.8%
- remaining activity at 0.1585 µM [2, 15]: 53.5%
- remaining activity at 0.03236 µM [2, 16]: 57.1%
- remaining activity at 0.006457 µM [2, 17]: 56.3%
- remaining activity at 0.001288 µM [2, 18]: 49.4%
- cAMP activity (∆pIC50 from EP4 WT) ([2]; Mean): -0.299
- cAMP activity (∆pIC50 from EP4 WT) ([2]; single experiments 1st-3rd): -0.429 and -0.317 and -0.151
- IC50 [3]: 0.0741 µM
- remaining activity at 0.01 µM [3, 7]: 28.8%
- remaining activity at 0.001 µM [3, 8]: 38.9%
- remaining activity at 10 pM [3, 9]: 40.1%
- remaining activity at 1 pM [3, 10]: 33.8%
- cAMP activity (∆pIC50 from EP2 WT) ([3]; Mean): -0.177
- cAMP activity (∆pIC50 from EP2 WT) ([3]; single experiments 1st-3rd): -0.228 and -0.186 and -0.118
- IC50 [4]: 18.2 µM
- remaining activity at 100 µM [4, 11]: 12.5%
- remaining activity at […] [4, 12]: 22.1%
- remaining activity at […] [4, 13]: 49.5%
- remaining activity at […] [4, 14]: 51.9%
- remaining activity at 0.1585 µM [4, 15]: 46%
- remaining activity at 0.03236 µM [4, 16]: 55.5%
- remaining activity at 0.006457 µM [4, 17]: 65.3%
- remaining activity at 0.001288 µM [4, 18]: 49%
- cAMP activity (∆pIC50 from EP4 WT) ([4]; TG6-129, V72A, Mean): -0.291
- IC50 [5]: 0.513 µM
- cAMP activity (∆pIC50 from EP2 WT) ([5]; Mean): -0.947
- cAMP activity (∆pIC50 from EP2 WT) ([5]; single experiments 1st-3rd): -0.910 and -0.955 and -0.975
- IC50 [6]: 0.209 µM
Structure (SMILES): CCc1nnc(NS(=O)(=O)c2ccc(NC(=S)NC(=O)/C=C/c3ccc(F)cc3)cc2)s1 [TG6-129]
- antagonism profile EP2 versus EP4 (in words) ([1]; cAMP accumulation assay upon PGE2 stimulation, Appendix Fig. S1A): dual antagonist that preferentially antagonizes EP2; also recorded: preferential potency toward EP2
